{"source": "patent US6710048B2", "about": "“Pyrazine derivatives as modulators of tyrosine kinases” (Ortho-McNeil Pharmaceutical, Inc., priority 2000, dated 2004)", "target": "T1, VEGF-R (vascular endothelial growth factor receptor-2) (Rattus norvegicus, UniProt O08775)", "T1 construct": "polyhistidine (6xHis) (N)", "T1 sequence (O08775 786-1343)": "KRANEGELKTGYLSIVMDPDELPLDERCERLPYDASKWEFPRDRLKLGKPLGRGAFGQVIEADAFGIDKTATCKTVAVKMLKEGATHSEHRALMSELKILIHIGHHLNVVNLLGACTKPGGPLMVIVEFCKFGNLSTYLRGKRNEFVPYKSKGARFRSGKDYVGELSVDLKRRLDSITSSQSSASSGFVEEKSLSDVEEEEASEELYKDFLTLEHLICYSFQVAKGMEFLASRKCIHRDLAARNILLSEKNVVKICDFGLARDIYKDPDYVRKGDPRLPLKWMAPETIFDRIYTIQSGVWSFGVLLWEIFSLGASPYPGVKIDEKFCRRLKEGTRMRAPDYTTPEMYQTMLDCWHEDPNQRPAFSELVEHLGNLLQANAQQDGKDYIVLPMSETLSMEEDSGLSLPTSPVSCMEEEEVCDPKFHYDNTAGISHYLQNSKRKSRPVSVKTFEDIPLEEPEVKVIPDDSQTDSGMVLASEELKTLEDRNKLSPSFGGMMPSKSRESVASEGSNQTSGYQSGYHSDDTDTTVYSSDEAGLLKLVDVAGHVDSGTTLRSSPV", "assay": "VEGF-R screening assay (33P FlashPlate kinase assay)", "format": "biochemical", "experimental": "A kinase reaction mixture was prepared containing 50 mM Tris-HCl pH=8, 10 mM MgCl2, 0.1 mM NAPO4, 1 mM DTT, 10 μM ATP, 0.025 μM biotinylated peptide substrate and 0.8 μCuries per well ^33P-γ-ATP [2000-3000 Ci/mmol]. 70 μl of the kinase reaction mixture was dispensed into the well of a streptavidin coated FlashPlate™ (Cat. # SMP103, NEN, Boston, Mass.). Then 1 μl of test compound stock in 100% DMSO was added to the wells resulting in a final concentration of 1% DMSO in the reaction with a 100 μl final reaction volume. Next, soluble rat tyrosine kinase containing an N-terminal 6×HIS tag was diluted in 50 mM Tris-HCl pH=8.0, 0.1% BSA at a concentration of 5 ng per microliter and 30 μl (150 ng enzyme per test well) was added to each well to initiate the reaction. The reaction was incubated for one hour at 30° C. At the end of the 1-hour incubation, the reaction was terminated by aspirating the reaction mixture from the plate and washing the wells twice with PBS containing 100 mM EDTA. The PLCI biotinylated peptide substrate becomes immobilized on the Flashplate™ and the incorporation of ^33P-γ-ATP was measured by reading the plate on a scintillation counter. Inhibition of the enzymatic activity of the VEGF-R was measured by observing a reduced amount of ^33P-γ-ATP incorporated into the immobilized peptide.\nThe term n.d. means not tested.\nAssays to test compound inhibition of other kinases were preformed using methods that measure the amount of phosphorylation of a biotinylated peptide substrate. Biotinylated peptide substrates were selected from the literature as appropriate for the enzyme being evaluated. The general procedure used to assay for kinase activity is as follows: A kinase reaction mix was prepared in 50 mM Tris-HCl pH=8, 10 mM MgCl2, 0.1 mM NaVO4, 1 mM DTT, 5-10 μM ATP, 0.25-1 μM biotinylated peptide substrate, 0.2-0.8 μCuries per well ^33P-γ-ATP [2000-3000 Ci/mmol]. Assay conditions vary slightly for each protein kinase, for example, insulin receptor kinase requires 10 mM MnCl2 for activity and Calmodulin-dependent protein kinase requires calmodulin and 2 mM CaCl2. The reaction mixture was dispensed into the wells of a streptavidin coated Flashplate and 1 μl drug stock in 100% DMSO was added to a 100 μl reaction volume resulting in a final concentration of 1% DMSO in the reaction. Enzyme was diluted in 50 mM Tris-HCl pH=8.0, 0.1% BSA and added to each well. The reaction was incubated for one hour at 30° C. in the presence of compound. After one hour the reaction mix was aspirated from the plate and the plate was washed with PBS containing 100 mM EDTA. The plate was read on a scintillation counter to determine ^33P-γ-ATP incorporated into the immobilized peptide. Test compounds were assayed in duplicate at 8 concentrations [100 tM, 10 μM, 1 μM, 100 nM, 10 nM, 1 nM, 100 μM, 10 μM]. A maximum and minimum signal for the assay was determined on each plate. The IC50 was calculated from the dose response curve of the percent inhibition of the maximum signal in the assay according to the formula [max signal−background/test compound signal−background (100)=% inhibition] by graphing the percent inhibition against the log concentration of test compound. Known inhibitor compounds appropriate for the kinase being assayed were also included on each plate.\nVEGF-R (vascular endothelial growth factor receptor-2) is a fusion protein containing a polyhistidine tag at the N-terminus followed by amino acids 786-1343 of the rat VEGF-R2 kinase domain (GenBank Accession #U93306). CDK1 (cyclin dependent kinase 1) is isolated from insect cells expressing both the human CDK1 catalytic subunit and its positive regulatory subunit cyclin B (New England Biolabs, Beverly, Mass., Cat. #6020). CDK4 (cyclin dependent kinase 4) contains amino acids 769 to 921 of the mouse […] protein found in the GST-retinoblastoma protein construct (Santa Cruz Biotechnology, Santa Cruz, Calif.; Cat. #SC-4112). […]", "key": {"[1]": {"settings": "Table 4 kinase selectivity, read-out: IC50, Assay 1 VEGF-R"}, "[2]": {"settings": "Tables 1-3, >10 or >100 = no 50% inhibition at highest dose tested, read-out: VEGF-R IC50"}}, "note": "Like-named read-outs stand apart in the source and are kept apart here.", "data": [{"smiles": "O=C(NCCCO)c1cncc(-c2cncc(Nc3cccc(Cl)c3)n2)c1", "note": "[Cmd 39]", "values": [{"measurement": "IC50", "setting": "[1]", "result": 2500, "unit": "nM"}, {"measurement": "IC50", "setting": "[2]", "result": 2500, "unit": "nM"}]}, {"smiles": "Clc1cccc(Nc2cncc(-c3cncc(NCCCn4cncn4)c3)n2)c1", "note": "[Cmd 76]", "values": [{"measurement": "IC50", "setting": "[1]", "result": 52, "unit": "nM"}, {"measurement": "IC50", "setting": "[2]", "result": 52, "unit": "nM"}]}, {"smiles": "OCCCCNc1cncc(-c2cncc(Nc3cccc(Cl)c3)n2)c1", "note": "[Cmd 32]", "values": [{"measurement": "IC50", "setting": "[1]", "result": 59, "unit": "nM"}, {"measurement": "IC50", "setting": "[2]", "result": 60, "unit": "nM"}]}, {"smiles": "OCCCNc1cncc(-c2cncc(Nc3cccc(Cl)c3)n2)c1", "note": "[Cmd 4]", "values": [{"measurement": "IC50", "setting": "[1]", "result": 42, "unit": "nM"}, {"measurement": "IC50", "setting": "[2]", "result": 80, "unit": "nM"}]}, {"smiles": "Clc1cccc(Nc2cncc(-c3cncc(NCCCn4cccn4)c3)n2)c1", "note": "[Cmd 75]", "values": [{"measurement": "IC50", "setting": "[1]", "result": 79, "unit": "nM"}, {"measurement": "IC50", "setting": "[2]", "result": 79, "unit": "nM"}]}, {"smiles": "Clc1cccc(Nc2cncc(-c3cncc(NCCCc4ccncc4)c3)n2)c1", "note": "[Cmd 71]", "values": [{"measurement": "IC50", "setting": "[1]", "result": 52, "unit": "nM"}, {"measurement": "IC50", "setting": "[2]", "result": 52, "unit": "nM"}]}, {"smiles": "Clc1cccc(Nc2cncc(-c3cncc(NCCCN4CCCCC4)c3)n2)c1", "note": "[Cmd 73]", "values": [{"measurement": "IC50", "setting": "[1]", "result": 105, "unit": "nM"}, {"measurement": "IC50", "setting": "[2]", "result": 105, "unit": "nM"}]}, {"smiles": "Clc1cccc(Nc2cncc(-c3cncc(NCCCc4cccnc4)c3)n2)c1", "note": "[Cmd 72]", "values": [{"measurement": "IC50", "setting": "[1]", "result": 89, "unit": "nM"}, {"measurement": "IC50", "setting": "[2]", "result": 89, "unit": "nM"}]}, {"smiles": "CN(C)CCNc1cncc(-c2cncc(Nc3cccc(Cl)c3)n2)c1", "note": "[Cmd 33, N′-[5-[6-[(3-chlorophenyl)amino]pyrazinyl]-3-pyridinyl]-N^2,N^2-dimethyl-1,2-ethanediamine]", "values": [{"measurement": "IC50", "setting": "[1]", "result": 70, "unit": "nM"}, {"measurement": "IC50", "setting": "[2]", "result": 70, "unit": "nM"}]}, {"smiles": "CN(C)CCCNc1cncc(-c2cncc(Nc3cccc(Cl)c3)n2)c1", "note": "[Cmd 35]", "values": [{"measurement": "IC50", "setting": "[1]", "result": 94, "unit": "nM"}, {"measurement": "IC50", "setting": "[2]", "result": 90, "unit": "nM"}]}]}
